Assay results from patent publication US10954549B2, “Detection and classification of an anticoagulant using a clotting assay” (Haemonetics Corporation, priority 2014, dated 2021).

Tests used:
[1] = test system: citrated whole blood; assay: TEG kaolin with ecarin test of spiked blood; type: biochemical, human; details: for R value with ecarin versus reference range: Example 2, three dosage levels, kaolin reference range about 5 to about 10 minutes; for R time in the presence versus absence of ecarin: FIGS. 8A-8C; for MA values with ecarin relative to samples run without ecarin: kaolin test; for R, K and TMRTG values on addition of ecarin to the kaolin test / α and MRTG values on addition of ecarin to the kaolin test: treated and control groups
Text: (§1) The TEG clotting assay was used to determine if low, normal, and high doses of dabigatran, rivaroxaban, and apixaban could be detected in blood spiked with these compounds. Three oral anticoagulants (OAC), namely dabigatran, rivaroxaban, and apixaban, were spiked into blood obtained from 14 healthy volunteer human donors. For each OAC tested, citrated blood from three donors was spiked with three different concentrations of the active drug (i.e., the compound). The spiked blood samples and control samples spiked with diluent were tested with the TEG® 5000 Thrombelastograph® Hemostasis Analyzer (Haemonetics Corporation, Braintree, Mass., USA) using the Kaolin and RapidTEG® reagents (Haemonetics). Each sample was run in triplicate. All samples were tested with and without ecarin (purchased from Enzyme Research Laboratories, South Bend, IN). This study was IRB approved and all donors were over 18 and signed informed consent forms.
For the kaolin test, 1 mL of citrated blood sample was mixed with kaolin and 340 microliters (μL) of this blood was added to a TEG cup containing 20 μL of 0.2M CaCl2 for recalcification. The kaolin with ecarin test was performed in a similar fashion, using 20 μL of an ecarin/CaCl2 solution (0.16 M CaCl2; 19 EU/mL ecarin).
Ecarin is derived from the venom of the saw-scaled viper, Echis carinatus. Ecarin activates prothrombin (the precursor of thrombin—see FIG. 5). This activation of prothrombin by ecarin produces meizothrombin, a prothrombin-thrombin intermediate which has a low level of procoagulant enzymatic activity.
Healthy human volunteers (who are not being administered any anticoagulant), donated blood. Following donation, the blood collected from the donors (which was added to citrate to prevent clotting) was divided into portions, and portions of the blood were spiked with either nothing, dabigatran, or rivaroxaban. The portions were then assayed using thromboelastography, including assays performed in the presence of ecarin.

[2] = cited from earlier work
[3] = test system: blood from healthy volunteers; assay: Thromboelastography R time of spiked blood in the presence of the FXa reagent; type: biochemical, human; details: in vitro spiking, increasing concentrations
Protocol: Blood from healthy volunteers known not to be taking any oral anticoagulant and without any other significant health issues are analyzed using the FXa or the Ecarin reagent in a TEG® hemostasis analyzer. The FXa reagent (i.e., the Factor Xa reagent) is used to detect the presence (or absence) of an anticoagulant in the blood component being tested. In absence of any oral anticoagulant, the FXa reagent will accelerate the clotting process and result in a very short R-time. In presence of direct thrombin inhibitors and/or anti-Factor Xa anticoagulant(s), the process is slowed down and will cause elongation of the R-time. This difference in R-time is utilized to detect the presence of the oral anticoagulant. The R-time generated from multiple donors was used to construct a reference range. Blood was spiked with either direct thrombin inhibitors or anti-Xa(s) at different concentrations and analyzed using the FXa reagent or the Ecarin reagent. The drug concentrations chosen represent the published therapeutic ranges for these two classes of drugs. This assay was repeated in multiple donors to account for possible donor variations.

[4] = test system: citrated whole blood; assay: RapidTEG (rTEG) test of blood spiked with anticoagulant; type: biochemical, human; details: for TEG ACT parameter versus control group: all tested concentrations (except rivaroxaban 22 ng/mL)
Text: as §1
The RapidTEG (rTEG) test incorporated both tissue factor and kaolin to generate the conventional kaolin parameters as well as the TEG-ACT parameter, which is measured in seconds. The TEG-ACT is equivalent to the Activated Clotting Time (see Chavez J. J. et al., Anesth. Analg. 99:1290-1294, 2004) and has a normal range of 86 to 118 seconds. A prolonged TEG-ACT time indicates slower clot formation. In addition, velocity curves derived from the above mentioned kaolin and rTEG tests were plotted using TEG software. These curves represent the speed of clot propagation (MRTG, Maximum Rate of Thrombus Generation; and TMRTG, Time to Maximum Rate of Thrombus Generation) (see FIG. 3B).
For the RapidTEG (rTEG) test, the reagent was reconstituted with 20 μL diluent water, and allowed to stand for 5 minutes per manufacturer instructions. Ten μL of this reconstituted reagent was added to the TEG cup with 20 μl 0.2M CaCl2 for recalcification.
(§2) 340 μL of the citrated blood sample was added to the cup with these two reagents, and the contents of the cup were mixed 3 times by drawing the contents of the cup up into the pipette and redispensing it into the cup. The test was started immediately after mixing and allowed to run until the MA parameter had defined. The rTEG with ecarin test was performed as the rTEG test above, using 20 μL of an ecarin/CaCl2 solution (0.16M CaCl2; 19EU/mL ecarin).

[5] = test system: citrated whole blood; assay: rTEG with ecarin test of spiked blood; type: biochemical, human
Text: as §1, §2

Row | Compound | R value with ecarin versus reference range [1] | R time in the presence versus absence of ecarin [1] | MA values with ecarin relative to samples run without ecarin [1] | R, K and TMRTG values on addition of ecarin to the kaolin test [1] | α and MRTG values on addition of ecarin to the kaolin test [1] | R-time compared to the reference range, FXa reagent [3] | TEG ACT parameter, distinguishing between concentrations [4] | TMRTG parameter sensitivity to presence of drug [4] | TEG ACT parameter versus control group [4] | TEG-ACT times on addition of ecarin to the RapidTEG test [5] | TMRTG times on addition of ecarin to the RapidTEG test [5] | further results
1 | O=C(NC[C@H]1CN(c2ccc(N3CCOCC3=O)cc2)C(=O)O1)c1ccc(Cl)s1 [rivaroxaban, Rivaroxaban] | dramatically shortened and all three dosage levels fall outside of the control reference range | equivalent and significant shortening of R time | did not change | significant decrease | significant increase | dose dependent elongation of the R-time | good dose response curve | sensitive to the presence | significantly different | significantly decreases | significantly decreases | half-lives compared ([2]; in vivo): shorter half-lives than dabigatran; Cmax ([2]; oral dose of 10 mg): 141 ng/mL; K, α and MRTG parameters versus control or between studied concentrations [4]: did not show any statistical difference; MA values versus control ([4]; all studied concentrations): did not change; ACT time versus non-spiked blood sample ([4]; medium and higher concentrations): significantly higher; RapidTEG α angle when ecarin was added ([5]; any of the studied concentrations): did not change; RapidTEG K values when ecarin was added ([5]; middle concentration (89 ng/mL)): significantly decreased
2 | dabigatran | shortened and approaches the normal reference range | concentration dependent decrease in R time | did not change | significant decrease | significant increase | dose dependent elongation of the R-time | good dose response curve | sensitive to the presence | significantly different | significantly decreases | significantly decreases | R, kaolin test with ecarin ([1]; 500, 200, 50 ng/mL): only a dose related decrease of the R; maximum plasma concentration ([2]; 150 mg oral dose): 110 ng/mL; half-life ([2]; lengthened in patients with renal dysfunction): 12 to 17 h; K parameter versus control ([4]; 200 ng/mL and 50 ng/mL): statistically different from control; K parameter versus control ([4]; 500 ng/mL): not for the concentration of 500 ng/mL; α parameter versus control ([4]; 500 ng/mL and 50 ng/mL): statistically different from control; MA values versus control group ([4]; 500 ng/mL, still within normal range): significantly different from the control group; MRTG parameter sensitivity ([4]; 500, 200, 50 ng/mL): sensitive to the two lowest concentrations; TMRTG parameter between concentrations ([4]; 500 vs 200 ng/mL, 200 vs 50 ng/mL): able to differentiate between concentrations; K and α parameters, highest concentration versus other concentrations ([4]; 500 vs 200 ng/mL, 500 vs 50 ng/mL): able to differentiate; ACT time versus non-spiked blood sample ([4]; all concentrations): significantly higher; MA value on addition of ecarin to the RapidTEG test ([5]; 200 ng/mL, still within normal range): significantly decreased; RapidTEG α angle when ecarin was added ([5]; lowest concentrations (200 ng/mL, 50 ng/mL)): decrease of the angle value; RapidTEG K values when ecarin was added ([5]; middle concentration (200 ng/mL)): increased
